The source of these data is patent US10532065B2, “Bisphosphonic acid derivative and application for same” (NAGASAKI UNIVERSITY, priority 2014, dated 2020).

A word on the IC50: it is the concentration needed to halve the response being measured.

Holding throughout (assay type): cell-based
The test system of one experiment is EJ-1 cells / γδ T cells. In words: TNF-α production from γδ T cells stimulated by compound-pretreated EJ-1 cells (indirect antitumor action, ELISA). The conditions noted are these: for EC50: EJ-1 pretreated 4 hr with compound, 16 hr with γδ T cells, TNF-α ELISA, read-out: TNF-α50; for TNF-α production induction activity (in words): EJ-1 pretreated with compound, γδ T cells. As to the method:
The indirect antitumor action of bisphosphonic acid POM esters and bisphosphonic acids was studied by comparison using EJ-1. In principle, EJ-1 is treated with a compound, washed, and reacted with γδ T cells, and the cytotoxic ability is studied by comparison, by quantifying TNF-α produced by γδ T cells during cell disordering. TNF-α is generally used as an index of γδ T cell induction ability and/or proliferative capacity, and γδ T cells are considered to be induced and/or proliferated in proportion to the TNF-α amount (Journal of Immunology, 154, 5986-5994 (1995)). Since the produced TNF-α is what is called a tumor necrosis factor, it is considered to have an action to lower proliferation of cancer cells or induce cell death.
Thereto was added a solution (500 μl) of compounds 3, 5, 6, 7, which are bisphosphonic acid POM ester derivatives, obtained by serially diluting 10 mM stock solution 10-fold from 20 μM, or a solution (500 μl) of bisphosphonic acid 10, 12, 13, 14 compound obtained by serially diluting 10-fold from 200 μM, and the cells were suspended well. These conical tubes were stood at 37° C. for 4 hr, and the cells were washed 3 times with 5 ml of culture medium. To these cells was added 500 μl of medium, and the cells were suspended well. […] The cell culture medium was suspended well, and the plate was centrifuged at 1,700 rpm, 4° C. for 2 min and the culture supernatant (150 μl) was taken and placed in another round-bottomed 96 well plate. The plate was frozen at −80° C. overnight, left standing at room temperature for 1 hr, stirred well and 100 μl thereof was subjected to ELISA of TNF-α. The content of TNF-α was calculated from the analytical curve of TNF-α. These were performed in triplicate, and a graph showing bisphosphonic acid POM ester derivative and the corresponding bisphosphonic acid as one pair was plotted. […] The results of bisphosphonic acid POM ester derivative are shown by -●-, and the results of bisphosphonic acid are shown by -◯-.
The indirect antitumor action of bisphosphonic acid POM esters and bisphosphonic acids was quantitatively studied by comparison using EJ-1. […] Thereto was added a solution (500 μl) of a bisphosphonic acid POM ester derivative obtained by serially diluting 10 mM stock solution 10-fold from 20 μM, or a bisphosphonic acid solution (500 μl) serially diluted 10-fold from 200 μM was added, and the cells were suspended well. These conical tubes were stood at 37° C. for 4 hr, and the cells were washed 3 times with 5 ml of culture medium. To these cells was added 500 μl of medium, and the cells were suspended well. […] The cell culture medium was suspended well, and the plate was centrifuged at 1,700 rpm, 4° C. for 2 min and the culture supernatant (150 μl) was taken and placed in another round-bottomed 96 well plate. The plate was frozen at −80° C. overnight, left standing at room temperature for 1 hr, stirred well and 100 μl thereof was subjected to ELISA of TNF-α. The content of TNF-α was calculated from the analytical curve of TNF-α. These were performed in triplicate, and a half of the concentration of compounds 1-7, which are bisphosphonic acid POM ester derivatives, and compounds 8-14, which are bisphosphonic acids, necessary for producing the maximum amount of TNF-α from γδ T cells was calculated as TNF-α50, and summarized in Table 6.
Therefore, the TNF-α50 value of various bisphosphonic acid POM ester derivatives was calculated. […] Thereto was added a solution (500 μl) of compounds 1-7 and 15-39, which are bisphosphonic acid POM ester derivatives, and compound 42, which is other bisphosphonic acid ester derivative, obtained by serially diluting 10 mM stock solution 10-fold from 20 μM, and the cells were suspended well. These conical tubes were stood at 37° C. for 4 hr, and the cells were washed 3 times with 5 ml of culture medium. To these cells was added 500 μl of medium, and the cells were suspended well. […]
A general note: An ELISA detects its analyte on a solid surface through an enzyme-linked reagent.

For the next experiment, the system named is EJ-1 cells. In words: EJ-1 cell growth inhibition (direct antitumor action, CellTiterGlo). Particulars: for IC50: EJ-1 (bladder cancer) growth inhibition, 4 days culture; for direct antitumor activity (in words): EJ-1 growth inhibition. On the procedure: (§1) The direct antitumor action of bisphosphonic acid POM ester and bisphosphonic acid was studied by comparison using U937.
The direct antitumor action of bisphosphonic acid POM ester derivatives and bisphosphonic acids was studied by comparison using EJ-1. It was performed in the same manner as in Experimental Example 1 except that EJ-1 was used as the cell to be used. For recovery of the cells, a conventional EDTA trypsin treatment was performed.
The direct antitumor action of bisphosphonic acid POM esters and bisphosphonic acids was studied by comparison using EJ-1. It was performed in the same manner as in Experimental Example 2 except that EJ-1 was used as the cell to be used. For recovery of the cells, a conventional EDTA trypsin treatment was performed.
(§2) The direct antitumor action of various bisphosphonic acid POM esters was studied by comparison using U937 and EJ-1. The measurement was performed according to Experimental Example 2 and Experimental Example 4.

For the next experiment, the system named is U937 cells. In words: U937 cell growth inhibition (direct antitumor action, CellTiterGlo). The conditions noted are these: for IC50: U937 cell growth inhibition, 4 days culture; for direct antitumor activity (in words): U937 growth inhibition. On the procedure:
as §1, §2
On the technique in general: In ATP-based viability assays light output follows the ATP content of the culture.

“And” between values parts separate entries of the source, which are not always exact repeats. Equal values may be shown once. Read-outs that look alike come from different tables or passages of the source. A value given as a limit tells only on which side of the number the result lay.

Regarding `CN(CC(P(=O)(OCOC(=O)C(C)(C)C)OCOC(=O)C(C)(C)C)P(=O)(OCOC(=O)C(C)(C)C)OCOC(=O)C(C)(C)C)c1ccccn1` [Compound 1, tetrakispivaloyloxymethyl 2-(methylpyridin-2-ylamino)ethylidene-1,1-bisphosphonate], the EC50 in the experiment with EJ-1 cells / γδ T cells was 0.55 µM. In addition, the IC50 is 11 µM with EJ-1 cells and 5.3 µM in the experiment with U937 cells.
`CC(C)(C)C(=O)OCOP(=O)(OCOC(=O)C(C)(C)C)C(CNc1ncccc1Br)P(=O)(OCOC(=O)C(C)(C)C)OCOC(=O)C(C)(C)C` [Compound 2, tetrakispivaloyloxymethyl 2-(3-bromopyridin-2-ylamino)ethylidene-1,1-bisphosphonate]: the EC50 in the experiment on EJ-1 cells / γδ T cells came to 4.5 µM. In addition, the IC50 came out at 2.3 µM in the experiment on EJ-1 cells and 0.68 µM in the experiment on U937 cells. In addition, the “direct antitumor activity (in words)” value in the experiment on EJ-1 cells and with U937 cells was “high activity” throughout.
For `Cc1ccc(NCC(P(=O)(OCOC(=O)C(C)(C)C)OCOC(=O)C(C)(C)C)P(=O)(OCOC(=O)C(C)(C)C)OCOC(=O)C(C)(C)C)nc1` [Compound 3, tetrakispivaloyloxymethyl 2-(5-methylpyridin-2-ylamino)ethylidene-1,1-bisphosphonate], in the experiment on EJ-1 cells / γδ T cells, the EC50 was found to be 0.48 µM. Further, the IC50 with EJ-1 cells was 5.4 µM; with U937 cells, 5.6 µM.
Taken in the same sequence, the figures for `CC(C)(C)C(=O)OCOP(=O)(OCOC(=O)C(C)(C)C)C(CNc1ccc(Br)cn1)P(=O)(OCOC(=O)C(C)(C)C)OCOC(=O)C(C)(C)C` [Compound 4, tetrakispivaloyloxymethyl 2-(5-bromopyridin-2-ylamino)ethylidene-1,1-bisphosphonate] were 0.7 µM, 7.8 µM and 3.6 µM.
As to `CC(C)(C)C(=O)OCOP(=O)(OCOC(=O)C(C)(C)C)C(CNc1ccc(F)cn1)P(=O)(OCOC(=O)C(C)(C)C)OCOC(=O)C(C)(C)C` [Compound 5, tetrakispivaloyloxymethyl 2-(5-fluoropyridin-2-ylamino)ethylidene-1,1-bisphosphonate], in the experiment with EJ-1 cells / γδ T cells, the EC50 was found to be 0.069 µM and the “TNF-α production induction activity (in words)” value is reported as “high activity”. The IC50 in the experiment on EJ-1 cells was 4.8 µM and 5.7 µM. The midpoint of inhibition in the experiment with U937 cells, the IC50, lay at 5.3 µM.
As to `CC(C)(C)C(=O)OCOP(=O)(OCOC(=O)C(C)(C)C)C(CNc1ncccn1)P(=O)(OCOC(=O)C(C)(C)C)OCOC(=O)C(C)(C)C` [Compound 6, tetrakispivaloyloxymethyl 2-(pyrimidin-2-ylamino)ethylidene-1,1-bisphosphonate], in the experiment on EJ-1 cells / γδ T cells, the EC50 came to 0.08 µM and the “TNF-α production induction activity (in words)” value was “high activity”. Further, in the experiment with EJ-1 cells, 0.09 µM corresponded to half-maximal inhibition (IC50) and the “direct antitumor activity (in words)” value is on record as “high activity”. In the experiment with U937 cells, the IC50 stood at 2.4 µM and the “direct antitumor activity (in words)” value was “high activity”.
With `Cc1cccnc1NCC(P(=O)(O)O)P(=O)(O)O` [Compound 8, 2-(3-methylpyridin-2-ylamino)ethylidene-1,1-bisphosphonic Acid, reference compound], in the experiment with EJ-1 cells / γδ T cells (EJ1), the EC50 is greater than 100 µM. In addition, the IC50 turned out to be 13 µM in the experiment with EJ-1 cells (EJ1, 96 h) and 980 µM in the experiment with U937 cells (Homo sapiens, U-937, 96 h).
Taken in the same sequence, the figures for `O=P(O)(O)C(CNc1ncccc1Br)P(=O)(O)O` [Compound 9, 2-(3-bromopyridin-2-ylamino)ethylidene-1,1-bisphosphonic Acid, reference compound] were greater than 100 µM, 970 µM and 1100 µM.
With `Cc1ccc(NCC(P(=O)(O)O)P(=O)(O)O)nc1` [Compound 10, 2-(methylpyridin-2-ylamino)ethylidene-1,1-bisphosphonic Acid, reference compound], the EC50 with EJ-1 cells / γδ T cells (EJ1) was determined as 48 µM. Besides, the IC50 with EJ-1 cells (EJ1, 96 h) was 7.9 µM; with U937 cells (Homo sapiens, U-937, 96 h), 29 µM.
Taken in the same sequence, the figures for `O=P(O)(O)C(CNc1ccc(Br)cn1)P(=O)(O)O` [Compound 11, 2-(5-bromopyridin-2-ylamino)ethylidene-1,1-bisphosphonic Acid, reference compound] were greater than 100 µM, 290 µM and 200 µM.
Taken in the same sequence, the figures for `O=P(O)(O)C(CNc1ccc(F)cn1)P(=O)(O)O` [Compound 12, 2-(5-fluoropyridin-2-ylamino)ethylidene-1,1-bisphosphonic Acid, reference compound] were 49 µM, 260 µM and 68 µM.
Taken in the same sequence, the figures for `O=P(O)(O)C(CNc1ncccn1)P(=O)(O)O` [Compound 13, 2-(pyrimidin-2-ylamino)ethylidene-1,1-bisphosphonic Acid, reference compound] were 48 µM, 23 µM and 150 µM.
Regarding `CC(C)(C)C(=O)OCOP(=O)(OCOC(=O)C(C)(C)C)C(CNc1ncccc1OCc1ccccc1)P(=O)(OCOC(=O)C(C)(C)C)OCOC(=O)C(C)(C)C` [Compound 15, tetrakispivaloyloxymethyl 2-(3-benzyloxypyridin-2-ylamino)ethylidene-1,1-bisphosphonate], the EC50 in the experiment with EJ-1 cells / γδ T cells is greater than 10 µM. The IC50 in the experiment on EJ-1 cells amounted to 16 µM; in the experiment on U937 cells, 7.1 µM.
Taken in the same sequence, the figures for `Cc1ccnc(NCC(P(=O)(OCOC(=O)C(C)(C)C)OCOC(=O)C(C)(C)C)P(=O)(OCOC(=O)C(C)(C)C)OCOC(=O)C(C)(C)C)c1` [Compound 16, tetrakispivaloyloxymethyl 2-(4-methylpyridin-2-ylamino)ethylidene-1,1-bisphosphonate] were 5.1 µM, 15 µM and 6.8 µM.
In the case of `CC(C)(C)C(=O)OCOP(=O)(OCOC(=O)C(C)(C)C)C(CNc1ccc(C(F)(F)F)cn1)P(=O)(OCOC(=O)C(C)(C)C)OCOC(=O)C(C)(C)C` [Compound 17, tetrakispivaloyloxymethyl 2-(5-trifluoromethylpyridin-2-ylamino)ethylidene-1,1-bisphosphonate], the EC50 in the experiment with EJ-1 cells / γδ T cells was greater than 10 µM. Moreover, the values for the IC50 in the experiment on EJ-1 cells and in the experiment on U937 cells were 4.3 µM and 2.6 µM, respectively.
Taken in the same sequence, the figures for `CC(C)(C)C(=O)OCOP(=O)(OCOC(=O)C(C)(C)C)C(CNc1ccc(Cl)cn1)P(=O)(OCOC(=O)C(C)(C)C)OCOC(=O)C(C)(C)C` [Compound 18, tetrakispivaloyloxymethyl 2-(5-chloropyridin-2-ylamino)ethylidene-1,1-bisphosphonate] were 0.38 µM, 4.8 µM and 3.3 µM.
